In patent US6255080A, “Bacteriocins produced by ruminal bacteria” (priority 1998, dated 2001):
“Also recorded” adds a separate entry of the source.

Tests used:
indicator = assay: Effect of detergents on the indicator; assay type: cell-based
Experimental: Further increases in carbohydrate beyond 2% (w/v) had no further effect on enhancing production in liquid culture. As several bacteriocins are known to be cell associated (Jack et al., 1995), bound activity was assayed for by washing pelleted cells with various detergents (Triton X-100, Tween 80, Tween 20). […] However, both Tween 80 and Tween 20 appeared to have no detrimental efLect on the indicator at levels of up to 1.0% (v/v).

[1] = tested on: a-chymotrypsin or pronase; assay: Protease sensitivity in liquid (spent culture medium or purified bacteriocin), drop test; assay type: in vitro ADME; conditions: purified bacteriocin treated prior to sample preparation
Experimental: Determination of protease sensitivity of bacteriocin-like activity in liquid cultures was carried out as follows: 10 μl of a stock solution (10 mg/ml) of each protease was added to 100 μl of either spent culture medium or the purified bacteriocin, and incubated at 37° C. for 2 hours, after which activity was assessed using a drop test (Tagg et al., 1976). Controls consisted of protease only (1 in 10 dilution) spotted directly onto an overlay containing the indicator organism.
The purity of the peptide was assessed using Triacine-sodium-dodecyl-sulphate-polyacrylamide gel electrophoresis analysis followed by silver staining. […] Protease sensitivity of the isolated bacteriocin was identical to the protease sensitivity of the inhibitor produced in the deferred plate test (see above).

[2] = tested on: indicator strain of B. fibrisolvens; assay: Drop (spot) test and diffusion well assay of inhibitory activity; assay type: cell-based, Butyrivibrio fibrisolvens; conditions: spot testing, peptide purified by reverse phase chromatography
Experimental: Isolates found to produce bacteriocin-like activity using the deferred plating technique were tested for the production of bacteriocin-like activity in liquid cultures. Briefly, following overnight growth in L-10 medium, a 1.0 ml sample of the culture was centrifuged to remove the cells, and a 100 μl aliquot dropped onto a sterile petri dish and sterilised by exposure to shortwave ultraviolet light for a five minute period. Bacteriocin-like activity within the uv-sterilized spent culture fluid was assayed using both a drop test and diffusion well assay (Tagg et al., 1976). All steps were carried out under anerobic conditions in a glove box.
The active component was purified by FPLC ([…] System, Pharmacia) using reverse phase chromatography. All steps were carried out at 4° C. Solvents consisted of dH2 O (buffer A) and 2-propanol (buffer B), both of which contained 0.1% trifluoroacetic acid. A 0.5 ml aliquot of the crude bacteriocin preparation containing […] was injected onto a Resource RPC 3.0 ml column (Pharmacia), washed with two column volumes of buffer A, and eluted from the column with a gradient from 100% buffer A to 100% buffer B, at a flow rate of 1.0 ml/minute. The elution was monitored at 206 nm. […]

CCCCCCCC/C=C\CCCCCCCC(=O)OCCOCC(OCCO)C1OCC(OCCO)C1OCCO (centres unmarked) [Tween 80]
level with no detrimental effect on the indicator (indicator): up to 1.0 % (v/v)

Butyrivibriocin AR10
effect of a-chymotrypsin treatment on inhibitory activity [1]: completely eliminated inhibitory activity | effect of pronase treatment on inhibitory activity [1]: completely eliminated inhibitory activity | inhibitory activity of the purified peptide [2]: inhibitory activity; also recorded: inhibitory to the growth

Triton X-100
level very detrimental to the indicator (indicator; detergent): less than 0.1 % (v/v)
